The results in this text go back to patent publication US12281098B2, “Five-membered-fused six-membered compound, preparation method, pharmaceutical composition and use” (HANGZHOU POLYMED BIOPHARMACEUTICALS, INC., priority 2021, dated 2025).

Structures are written as SMILES. Some results are limits rather than exact numbers.

In the test the target is T1, IRAK4 kinase (Homo sapiens, UniProt Q9NWZ3).
T1 construct: purchased Carna 09-145
T1 sequence (Q9NWZ3 1-460): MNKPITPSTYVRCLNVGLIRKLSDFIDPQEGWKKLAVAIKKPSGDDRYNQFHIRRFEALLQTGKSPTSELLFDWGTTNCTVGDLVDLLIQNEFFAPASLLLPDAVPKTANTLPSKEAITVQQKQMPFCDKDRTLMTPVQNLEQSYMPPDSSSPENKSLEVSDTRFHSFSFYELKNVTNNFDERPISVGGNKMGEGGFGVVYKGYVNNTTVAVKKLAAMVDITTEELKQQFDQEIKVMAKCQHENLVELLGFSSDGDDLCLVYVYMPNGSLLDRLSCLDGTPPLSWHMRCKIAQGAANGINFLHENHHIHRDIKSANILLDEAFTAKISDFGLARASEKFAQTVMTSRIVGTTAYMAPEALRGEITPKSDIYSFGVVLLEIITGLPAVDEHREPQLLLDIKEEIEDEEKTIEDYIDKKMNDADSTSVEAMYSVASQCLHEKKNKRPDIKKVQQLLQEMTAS
Description: Compound inhibition of IRAK4 kinase activity (fluorescence microfluidic mobility shift assay). The test is classed as biochemical. The settings on record: 10 μM ATP, 6 nM IRAK4 kinase. The procedure:
Based on the experimental method of fluorescence microfluidic mobility shift assay, the IC50 value of the compound for competitive binding of ATP to IRAK4 kinase was determined. The initial detection concentration of the compound was 10 μM, which was 4-fold serially diluted to 0.38 nM and assayed in duplicate. In this case, commercially available staurosporine was the standard control for the assay.
1) IRAK4 kinase was dissolved in kinase buffer (50 mM HEPES pH 7.5, 10 mM MgCl2, 2 mM DDT, and 0.01% Brij-35) at a final concentration of 6 nM.
2) The substrate peptide FAM-P8 and ATP were dissolved in the above kinase buffer, and the final concentrations of the substrate peptide FAM-P8 and ATP for IRAK4 were 3 μM and 10 μM, respectively.
3) Compound dilution: The compound was first diluted to 50 μM, and then 4-fold serially diluted with DMSO. In this case, the solution without compound and kinase served as the blank control, corresponding to the “minimum value” shown below; the solution without compound but containing kinase, adenosine 5′-triphosphate disodium salt hydrate, DMSO, and the buffer served as the positive control, corresponding to the “maximum value” shown below.
4) Kinase reaction and termination: 10 μL of the kinase buffer was added to a 384-well plate containing 5 μL of the compound to be tested, and the mixture was incubated at room temperature for 10 minutes; another 10 μL of buffer containing the substrate peptide and adenosine 5′-triphosphate disodium salt hydrate was added to the 384-well plate, and after incubation at 28° C. for 1 hour, 25 μL of termination solution (100 mM HEPES pH 7.5, 50 mM EDTA, 0.2% Coating Reagent #3, and 0.015% Brij-35) was added to each well to terminate the reaction.
5) Data reading: CaliperEZ Reader II instrument was used to read the conversion rate data. Setting conditions: downstream voltage as −500 V, upstream voltage as −2250 V, base pressure as −0.5 PSI, and screening pressure as −1.2 PSI.
6) Data calculation: the conversion rate data was copied from CaliperEZ Reader II, and the conversion rate was converted into inhibition rate data. The calculation formula is as follows: Inhibition percentage (%)=(maximum value−conversion rate)/(maximum value−minimum value)*100%
IC50 values were fitted with XLFit excel add-in version 5.4.0.8.

On to `O=C(CCCN1Cc2cc(NC(=O)c3cccc(C(F)(F)F)n3)c(Br)cc2C1=O)NCCOCCOCCNc1cccc2c1C(=O)N(C1CCC(=O)NC1=O)C2=O` (stereo not drawn) [III-1], for which the IC50 is not below 10000 nM (Table 1) and not below 10000 nM (Table 2).
For the compound `O=C1CCC(N2C(=O)c3cccc(NCCOCCOCCOCCN4Cc5cc(NC(=O)c6cccc(C(F)(F)F)n6)c(Br)cc5C4=O)c3C2=O)C(=O)N1` (stereo not drawn) [III-4], the IC50 is 1000 to 10000 nM (Table 1) and 1000 to 10000 nM (Table 2).
For the compound `CC(C)(O)c1cc2nn(CCN3CCN(CC(=O)N4CC5(CCN(c6cccc7c6C(=O)N(C6CCC(=O)NC6=O)C7=O)CC5)C4)C3=O)cc2cc1NC(=O)c1cccc(C(F)(F)F)n1` (stereo not drawn) [III-12], the concentration for half-maximal inhibition (IC50) lay in the range of 100 to 1000 nM (Table 1) and 100 to 1000 nM (Table 2).
Regarding `CC(C)(O)c1cc2nn(CCN3CCN(CC(=O)NC4CCN(c5cccc6c5C(=O)N(C5CCC(=O)NC5=O)C6=O)CC4)C3=O)cc2cc1NC(=O)c1cccc(C(F)(F)F)n1` (stereo not drawn) [III-13], the IC50 was in the range of 100 to 1000 nM (Table 1) and 100 to 1000 nM (Table 2).
For the compound `CC(C)(O)c1cc2nn(CCN3CCN(CC(=O)N4CCN(c5cccc6c5C(=O)N(C5CCC(=O)NC5=O)C6=O)CC4)C3=O)cc2cc1NC(=O)c1cccc(C(F)(F)F)n1` (stereo not drawn) [III-14], the IC50 was 100 to 1000 nM (Table 1) and 100 to 1000 nM (Table 2).
For the compound `Cc1ncsc1-c1ccc([C@H](C)NC(=O)C2C[C@@H](O)CN2C(=O)[C@@H](NC(=O)COCCNC(=O)CN2CCN(CCn3cc4cc(NC(=O)c5cccc(C(F)(F)F)n5)c(C(C)(C)O)cc4n3)C2=O)C(C)(C)C)cc1` (stereo partly drawn) [III-15], the IC50 by setting is: (Table 1) 100 to 1000 nM; (Table 2) 100 to 1000 nM.
As to `COc1cc2c(cc1NC(=O)c1cccc(C(F)(F)F)n1)CN(CCC(C)(C)C(=O)N1CCC3(CC1)CCN(c1ncc(C(=O)N[C@H](C(=O)N4C[C@H](O)C[C@H]4C(=O)N[C@@H](C)c4ccc(-c5scnc5C)cc4)C(C)(C)C)cn1)CC3)C2=O` [III-32], the IC50 (Table 2) is 100 to 1000 nM.
The same measure, in the same setting: under `COc1cc2c(cc1NC(=O)c1cccc(C(F)(F)F)n1)CN(CCC(C)(C)C(=O)N1CCC3(CC1)CCN(c1ncc(Nc4cccc5c4C(=O)N(C4CCC(=O)NC4=O)C5=O)cn1)CC3)C2=O` (stereo not drawn) [III-33] stands 100 to 1000 nM; under `COc1cc2nn(CCN3CCN(CC(=O)N4CCC5(CC4)CCN(c4cccc6c4C(=O)N(C4CCC(=O)NC4=O)C6=O)CC5)CC3)cc2cc1NC(=O)c1cccc(C(F)(F)F)n1` (stereo not drawn) [III-38], less than 100 nM; under `COc1cc2nn(CCN3CCN(C4CCC5(CC4)CCN(c4cccc6c4C(=O)N(C4CCC(=O)NC4=O)C6=O)CC5)CC3)cc2cc1NC(=O)c1cccc(C(F)(F)F)n1` (stereo not drawn) [III-40], less than 100 nM.
Still for that read-out and setting: under `COc1cc2c(cc1NC(=O)c1cccc(C(F)(F)F)n1)CN(CCN1CCN(CC(=O)N3CCC4(CCC(C(=O)NC(C(=O)N5CC(O)CC5C(=O)NC(C)c5ccc(-c6scnc6C)cc5)C(C)(C)C)CC4)CC3)CC1)C2=O` (stereo not drawn) [III-43] stands 100 to 1000 nM; under `COc1cc2c(cc1NC(=O)c1cccc(C(F)(F)F)n1)CN(CCN1CCN(CC(=O)N3CCC4(CCC(NC(C(=O)N5CC(O)CC5C(=O)NC(C)c5ccc(-c6scnc6C)cc5)C(C)(C)C)CC4)CC3)CC1)C2=O` (stereo not drawn) [III-44], 100 to 1000 nM.
On the same count and under the same terms, under `COc1cc2nn(CCN3CCN(CC(=O)N4CCC5(CC4)CCN(c4cccc6c4C(=O)N(C4CCC(=O)NC4=O)C6=O)CC5)[C@H](C)C3)cc2cc1NC(=O)c1cccc(C(F)(F)F)n1` (stereo partly drawn) [III-45] stands less than 100 nM; under `COc1cc2nn(CCN3CCN(CC(=O)N4CCC5(CC4)CCN(c4cccc6c4C(=O)N(C4CCC(=O)NC4=O)C6=O)CC5)[C@@H](C)C3)cc2cc1NC(=O)c1cccc(C(F)(F)F)n1` (stereo partly drawn) [III-46], less than 100 nM; under `COc1cc2nn(CCN3CCN(CC(=O)N4CCC5(CCC(C(=O)N[C@H](C(=O)N6C[C@H](O)C[C@H]6C(=O)N[C@@H](C)c6ccc(-c7scnc7C)cc6)C(C)(C)C)CC5)CC4)[C@H](C)C3)cc2cc1NC(=O)c1cccc(C(F)(F)F)n1` [III-48], less than 100 nM.
With `CC(C)(O)c1cc2nn(CCN3CCN(CC(=O)N4CCC5(CC4)CCN(c4cccc6c4C(=O)N(C4CCC(=O)NC4=O)C6=O)CC5)CC3)cc2cc1NC(=O)c1cccc(C(F)(F)F)n1` (stereo not drawn) [III-50], the IC50 (Table 2) was less than 100 nM.
On to `CC(C)Oc1cc2nn(CCN3CCN(CC(=O)N4CCC5(CC4)CCN(c4cccc6c4C(=O)N(C4CCC(=O)NC4=O)C6=O)CC5)CC3)cc2cc1NC(=O)c1cccc(C(F)(F)F)n1` (stereo not drawn) [III-51], for which the half-maximal inhibitory concentration (IC50) (Table 2) is less than 100 nM.
The same measure, in the same setting: under `COc1cc2nn(CCN3C4CCC3CN(CC(=O)N3CCC5(CC3)CCN(c3cccc6c3C(=O)N(C3CCC(=O)NC3=O)C6=O)CC5)C4)cc2cc1NC(=O)c1cccc(C(F)(F)F)n1` (stereo not drawn) [III-53] stands less than 100 nM; under `COc1cc2nn(CCN3CCN(CC(=O)N4CCC5(CC4)CCN(c4cc6c(cc4F)C(=O)N(C4CCC(=O)NC4=O)C6=O)CC5)CC3)cc2cc1NC(=O)c1cccc(C(F)(F)F)n1` (stereo not drawn) [III-55], less than 100 nM; under `Cc1ncsc1-c1ccc([C@H](C)NC(=O)[C@@H]2C[C@@H](O)CN2C(=O)[C@@H](NC(=O)C2CCC3(CC2)CCN(C(=O)CN2CCN(CCn4cc5cc(NC(=O)c6cccc(C(F)(F)F)n6)c(OC(C)C)cc5n4)CC2)CC3)C(C)(C)C)cc1` [III-57], less than 100 nM.
Still for that read-out and setting: the result for `COc1cc2c(cc1NC(=O)c1cccc(C(F)(F)F)n1)CN(CCN1CCN(CC(=O)N3CCC4(CC3)CCN(c3cccc5c3C(=O)N(C3CCC(=O)NC3=O)C5=O)CC4)CC1)C2=O` (stereo not drawn) [III-58] reads 100 to 1000 nM; that for `COc1cc2c(cc1NC(=O)c1cccc(C(F)(F)F)n1)CN(CCC(C)(C)C(=O)N1CCC3(CC1)CN(c1cccc4c1C(=O)N(C1CCC(=O)NC1=O)C4=O)C3)C2=O` (stereo not drawn) [III-59], 100 to 1000 nM.
Take `CC(C)Oc1cc2nn(CCN3CCN(CC(=O)N4CC5(C4)CN(c4cccc6c4C(=O)N(C4CCC(=O)NC4=O)C6=O)C5)CC3)cc2cc1NC(=O)c1cccc(C(F)(F)F)n1` (stereo not drawn) [III-60]: the IC50 (Table 2) was less than 100 nM.
The same measure, in the same setting: the result for `COc1cc2nn(CCN3CCN(CC(=O)N4CC5(C4)CN(c4cccc6c4C(=O)N(C4CCC(=O)NC4=O)C6=O)C5)CC3)cc2cc1NC(=O)c1cccc(C(F)(F)F)n1` (stereo not drawn) [III-61] reads less than 100 nM.
In the case of `COc1cc2nn(CCN3CCN(CC(=O)N4CCC5(CC4)CN(c4cccc6c4C(=O)N(C4CCC(=O)NC4=O)C6=O)C5)CC3)cc2cc1NC(=O)c1cccc(C(F)(F)F)n1` (stereo not drawn) [III-62], the IC50 (Table 2) is less than 100 nM.
On the same count and under the same terms, under `COc1cc2c(cc1NC(=O)c1cccc(C(F)(F)F)n1)CN(CCC(C)(C)C(=O)N1CC3(C1)CN(c1cccc4c1C(=O)N(C1CCC(=O)NC1=O)C4=O)C3)C2=O` (stereo not drawn) [III-64] stands 100 to 1000 nM; under `COc1cc2nn(CCC3CCN(CC(=O)N4CCC5(CC4)CCN(c4cccc6c4C(=O)N(C4CCC(=O)NC4=O)C6=O)CC5)CC3)cc2cc1NC(=O)c1cccc(C(F)(F)F)n1` (stereo not drawn) [III-66], less than 100 nM; under `COc1cc2nn(CC#CC3CCN(CC(=O)N4CCC5(CC4)CCN(c4cccc6c4C(=O)N(C4CCC(=O)NC4=O)C6=O)CC5)CC3)cc2cc1NC(=O)c1cccc(C(F)(F)F)n1` (stereo not drawn) [III-67], less than 100 nM.
Still for that read-out and setting: under `COc1cc2nn(CCC3CCN(CC(=O)N4CCC5(CCC(C(=O)N[C@H](C(=O)N6C[C@H](O)C[C@H]6C(=O)N[C@@H](C)c6ccc(-c7scnc7C)cc6)C(C)(C)C)CC5)CC4)CC3)cc2cc1NC(=O)c1cccc(C(F)(F)F)n1` [III-68] stands less than 100 nM; under `COc1cc2nn(CCC3CCN(CC(=O)N4CC5(CC(CC(=O)N[C@H](C(=O)N6C[C@H](O)C[C@H]6C(=O)N[C@@H](C)c6ccc(-c7scnc7C)cc6)C(C)(C)C)C5)C4)CC3)cc2cc1NC(=O)c1cccc(C(F)(F)F)n1` [III-70], less than 100 nM; under `COc1cc2nn(CCN3CCC(CC(=O)N4CCC5(CC4)CCN(c4cccc6c4C(=O)N(C4CCC(=O)NC4=O)C6=O)CC5)CC3)cc2cc1NC(=O)c1cccc(C(F)(F)F)n1` (stereo not drawn) [III-71], less than 100 nM.
Still for that read-out and setting: under `COc1cc2nn(CCN3CCC(CC(=O)N4CC5(C4)CN(c4cccc6c4C(=O)N(C4CCC(=O)NC4=O)C6=O)C5)CC3)cc2cc1NC(=O)c1cccc(C(F)(F)F)n1` (stereo not drawn) [III-72] stands less than 100 nM; under `O=C1CCC(N2C(=O)c3cccc(N4CCC5(CCN(C(=O)CN6CCN(CCn7cc8cc(NC(=O)c9cccc(C(F)(F)F)n9)c(OC(F)(F)F)cc8n7)CC6)CC5)CC4)c3C2=O)C(=O)N1` (stereo not drawn) [III-73], 100 to 1000 nM.

A word on the IC50: it is the concentration that inhibits the measured activity by half.
